# ChEMBL document CHEMBL5214881, “Squaric acid analogues in medicinal chemistry” (Eur J Med Chem, 2021)
# Tests used:
# [1] = Dissociation constant, pKa of the compound; format: physicochemical
# Leishmania donovani = test: Antileishmanial activity against promastigote stage of Leishmania donovani MHOM/PE/84/LC26 incubated for 72 hrs by Neubauer haemocytometric chamber analysis; format: functional, organism-based; settings: MHOM/PE/84/LC26, 72 h
# Leishmania infantum = test: Antileishmanial activity against promastigote stage of Leishmania infantum MCAN/ES/2001/UCM-10 incubated for 72 hrs by Neubauer haemocytometric chamber analysis; format: functional, organism-based; settings: MCAN/ES/2001/UCM-10, 72 h
# HeLa = test: Cytotoxicity against human HeLa cells assessed as reduction in cell viability incubated for 24 hrs by MTT assay; format: functional, cell-based
# Cholinesterase = Cholinesterase (Homo sapiens, UniProt P06276); test: Inhibition of human BchE by spectrophotometric analysis
# Acetylcholinesterase = Acetylcholinesterase (Homo sapiens, UniProt P22303); test: Inhibition of human AchE by spectrophotometric analysis
# [2] = molecular target: Glutamate [NMDA] receptor; test: Binding affinity to NMDA receptor (unknown origin); format: protein-complex assay, Homo sapiens
# [3] = Toxicity in Swiss albino mouse assessed as lethality pretreated for 30 mins followed by NMDA stimulation and measured after 30 mins; settings: in vivo, 1 h, time 60 min
# [4] = molecular target: T1, Type-2 angiotensin II receptor (Homo sapiens, UniProt P50052); test: Inhibition of Angiotensin 2 binding to Angiotensin 2 receptor (unknown origin)
# T1 sequence (P50052 whole entry): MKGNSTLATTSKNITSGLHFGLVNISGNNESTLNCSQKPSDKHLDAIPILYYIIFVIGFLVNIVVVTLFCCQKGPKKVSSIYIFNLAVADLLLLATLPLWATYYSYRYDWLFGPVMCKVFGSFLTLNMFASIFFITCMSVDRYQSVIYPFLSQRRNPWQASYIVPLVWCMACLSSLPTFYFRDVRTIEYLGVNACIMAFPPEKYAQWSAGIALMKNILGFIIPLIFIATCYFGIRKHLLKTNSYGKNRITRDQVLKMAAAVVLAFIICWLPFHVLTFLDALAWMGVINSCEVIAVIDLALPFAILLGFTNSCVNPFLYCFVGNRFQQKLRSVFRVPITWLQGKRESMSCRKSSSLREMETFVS
# [5] = molecular target: T2, C-X-C chemokine receptor type 1 (Homo sapiens, UniProt P25024); test: Inhibition of human CXCR1
# T2 sequence (P25024 whole entry): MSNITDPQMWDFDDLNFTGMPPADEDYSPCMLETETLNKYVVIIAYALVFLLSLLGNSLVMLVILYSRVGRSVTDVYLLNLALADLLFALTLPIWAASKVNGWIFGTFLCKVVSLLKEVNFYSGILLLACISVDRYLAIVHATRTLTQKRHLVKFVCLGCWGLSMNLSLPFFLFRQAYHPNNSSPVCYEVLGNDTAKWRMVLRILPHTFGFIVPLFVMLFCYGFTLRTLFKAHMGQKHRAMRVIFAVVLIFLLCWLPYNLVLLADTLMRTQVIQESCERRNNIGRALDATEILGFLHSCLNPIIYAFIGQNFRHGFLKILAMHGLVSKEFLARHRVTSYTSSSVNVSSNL
# Helicobacter pylori = test: Antibacterial activity against Helicobacter pylori assessed as bacterial growth inhibition; format: functional
# Leishmania braziliensis = test: Antileishmanial activity against promastigote stage of Leishmania braziliensis MHOM/BR/1975/M2904 incubated for 72 hrs by Neubauer haemocytometric chamber analysis; format: functional, organism-based; settings: MHOM/BR/1975/M2904, 72 h
# Interstitial collagenase = molecular target: T3, Interstitial collagenase (Homo sapiens, UniProt P03956); test: Inhibition of MMP-1 (unknown origin) using DnpPro-Cha-Gly-Cys(Me)-His-Ala-Lys(Nma)-NH2 as substrate by fluorescence spectroscopy
# T3 sequence (P03956 whole entry): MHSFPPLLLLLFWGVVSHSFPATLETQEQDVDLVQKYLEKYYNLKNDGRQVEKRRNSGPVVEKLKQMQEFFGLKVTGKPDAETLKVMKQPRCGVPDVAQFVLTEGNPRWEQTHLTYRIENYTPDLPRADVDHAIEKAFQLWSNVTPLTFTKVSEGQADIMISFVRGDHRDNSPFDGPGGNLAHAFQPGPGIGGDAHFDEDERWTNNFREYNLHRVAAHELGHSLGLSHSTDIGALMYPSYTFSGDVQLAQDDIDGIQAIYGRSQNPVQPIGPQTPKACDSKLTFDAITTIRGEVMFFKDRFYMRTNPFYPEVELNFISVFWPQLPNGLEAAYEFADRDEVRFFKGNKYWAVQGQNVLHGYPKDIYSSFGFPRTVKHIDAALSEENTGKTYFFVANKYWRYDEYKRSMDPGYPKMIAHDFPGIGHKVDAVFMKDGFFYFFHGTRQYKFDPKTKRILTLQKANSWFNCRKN
# [6] = Inhibition of Yersinia pestis PTP
# [7] = molecular target: Glutamate [NMDA] receptor; test: Binding affinity to TCP-stimulated NMDA (unknown origin); format: protein-complex assay, Homo sapiens
# [8] = molecular target: T2, C-X-C chemokine receptor type 1; test: Binding affinity to human CXCR1 assessed as dissociation constant incubated for 6 to 24 hrs by radioligand binding assay
# [9] = molecular target: T4, C-X-C chemokine receptor type 2 (Homo sapiens, UniProt P25025); test: Binding affinity to human CXCR2 assessed as dissociation constant incubated for 6 to 24 hrs by radioligand binding assay
# T4 sequence (P25025 whole entry): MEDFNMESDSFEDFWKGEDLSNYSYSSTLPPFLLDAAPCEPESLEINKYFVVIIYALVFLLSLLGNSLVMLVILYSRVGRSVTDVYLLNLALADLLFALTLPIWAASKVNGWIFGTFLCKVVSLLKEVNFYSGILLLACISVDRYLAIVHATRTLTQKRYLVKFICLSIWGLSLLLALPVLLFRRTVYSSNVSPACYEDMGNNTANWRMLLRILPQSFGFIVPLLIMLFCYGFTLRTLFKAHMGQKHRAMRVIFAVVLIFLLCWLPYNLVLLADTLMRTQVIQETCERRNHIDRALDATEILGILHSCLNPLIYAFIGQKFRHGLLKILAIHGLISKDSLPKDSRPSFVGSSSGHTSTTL
# Urinary bladder = test: Inhibition of KCL-induced contraction in rat urinary bladder; format: functional, tissue-based; settings: Urinary bladder smooth muscle
# Cholinesterase, sequence (P06276 whole entry): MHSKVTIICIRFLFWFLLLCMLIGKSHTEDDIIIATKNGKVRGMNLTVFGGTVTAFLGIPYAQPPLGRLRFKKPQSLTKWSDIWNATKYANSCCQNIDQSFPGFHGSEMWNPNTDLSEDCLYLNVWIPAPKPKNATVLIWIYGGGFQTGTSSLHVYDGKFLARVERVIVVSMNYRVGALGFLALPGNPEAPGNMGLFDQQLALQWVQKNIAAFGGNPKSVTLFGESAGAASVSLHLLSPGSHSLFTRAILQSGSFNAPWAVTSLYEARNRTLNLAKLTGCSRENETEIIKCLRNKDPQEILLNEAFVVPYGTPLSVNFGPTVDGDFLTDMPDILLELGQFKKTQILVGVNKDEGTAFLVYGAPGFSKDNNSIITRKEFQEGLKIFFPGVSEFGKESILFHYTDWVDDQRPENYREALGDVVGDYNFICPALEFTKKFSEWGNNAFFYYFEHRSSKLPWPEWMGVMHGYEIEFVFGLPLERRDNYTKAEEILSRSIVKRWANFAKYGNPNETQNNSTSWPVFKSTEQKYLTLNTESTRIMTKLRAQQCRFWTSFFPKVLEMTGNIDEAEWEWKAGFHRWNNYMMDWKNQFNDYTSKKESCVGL
# Acetylcholinesterase, sequence (P22303 whole entry): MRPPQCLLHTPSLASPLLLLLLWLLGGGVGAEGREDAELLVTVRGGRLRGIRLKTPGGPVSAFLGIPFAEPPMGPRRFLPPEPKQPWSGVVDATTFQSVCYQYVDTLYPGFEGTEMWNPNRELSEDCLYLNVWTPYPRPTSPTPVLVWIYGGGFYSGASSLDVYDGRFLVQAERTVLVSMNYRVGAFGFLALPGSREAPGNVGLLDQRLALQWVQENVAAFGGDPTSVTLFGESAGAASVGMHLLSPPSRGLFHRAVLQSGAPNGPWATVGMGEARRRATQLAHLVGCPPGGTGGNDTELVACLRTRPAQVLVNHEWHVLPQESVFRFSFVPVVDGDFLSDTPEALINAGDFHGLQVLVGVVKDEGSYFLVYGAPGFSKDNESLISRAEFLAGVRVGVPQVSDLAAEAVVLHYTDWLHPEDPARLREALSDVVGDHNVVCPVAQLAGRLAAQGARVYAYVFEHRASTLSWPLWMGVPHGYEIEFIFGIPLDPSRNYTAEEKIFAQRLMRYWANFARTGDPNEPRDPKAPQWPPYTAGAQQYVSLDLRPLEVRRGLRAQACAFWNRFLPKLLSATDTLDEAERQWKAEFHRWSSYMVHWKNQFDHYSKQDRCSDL
structure (smiles),measurement,setting,value
Nc1nc2c(ncn2[C@@H]2O[C@@H]3CNc4c(c(=O)c4=O)N[C@H]3[C@H]2O)c(=O)[nH]1,pKa,[1],2.3
O=c1c(NCc2ccccc2)c(NC2CCN(Cc3ccccc3)CC2)c1=O,IC50,Leishmania donovani,17900 nM
CCCCCCCCCCCCCCC(C)Nc1c(NCC[N+](C)(C)C)c(=O)c1=O (configuration not stated),IC50,Leishmania infantum,16300 nM
COc1c(Nc2ccc3ccccc3c2-c2c(O)ccc3ccccc23)c(=O)c1=O,IC50,HeLa,46700 nM
O=c1c(NCCCCCCCc2c3c(nc4ccccc24)CCCC3)c(NCCCCCCCc2c3c(nc4ccccc24)CCCC3)c1=O,IC50,Cholinesterase,21 nM
same,IC50,Acetylcholinesterase,13 nM
Nc1c(NCCP(=O)(O)O)c(=O)c1=O,IC50,[2],470 nM
same,ED50,[3],29 mg/kg
O=c1c(O)c(-c2ccccc2-c2ccc(CNc3cc(C(F)(F)F)cc4c3CCCC4)cc2)c1=O,IC50,[4],25 nM
CCC(CC)Nc1c(Nc2cccc(C(=O)N(C)C)c2O)c(=O)c1=O,IC50,[5],15 nM
O=c1c(Nc2ccccc2)c(Nc2ccc([N+](=O)[O-])cc2O)c1=O,IC50,[5],36 nM
O=c1c(NC/C=C\COc2cc(CN3CCCCC3)cs2)c(NCCF)c1=O,MIC,Helicobacter pylori,1.56 µg/mL
CCCCNc1c(N(C)CCCN(C)C)c(=O)c1=O,IC50,Leishmania braziliensis,17300 nM
same,IC50,Leishmania infantum,18000 nM
CC[C@H](C)[C@H](Nc1c(N(C)O)c(=S)c1=O)C(=O)N[C@@H](Cc1ccccc1)C(=O)NC,IC50,Interstitial collagenase,15000 nM
O=c1c(O)c(-c2ccc([N+](=O)[O-])cc2)c1=O,IC50,[6],120000 nM
O=c1c2c(c1=O)N(CCP(=O)(O)O)CCCN2 [PERZINFOTEL],IC50,[7],7600 nM
same,IC50,[2],30 nM
same,ED50,[3],2.1 mg/kg
O=c1c(NCCCCc2c3c(nc4cc(Cl)ccc24)CCCC3)c(NCCCCc2c3c(nc4ccc(Cl)cc24)CCCC3)c1=O,IC50,Cholinesterase,110 nM
same,IC50,Acetylcholinesterase,2 nM
COc1c(Nc2ccc3c4c(cccc24)-c2ccccc2-3)c(=O)c1=O,IC50,HeLa,880 nM
CC[C@@H](Nc1c(Nc2cccc(C(=O)N(C)C)c2O)c(=O)c1=O)c1ccco1,Kd,[8],3.9 nM
same,Kd,[9],0.049 nM
CCc1cc(C#N)ccc1Nc1c(N[C@H](C)C(C)(C)C)c(=O)c1=O,IC50,Urinary bladder,90 nM
O=c1c(O)c(-c2ccc3ccccc3c2)c1=O,IC50,[6],40000 nM
CC[C@@H](Nc1c(Nc2cccc(C(=O)N(C)C)c2O)c(=O)c1=O)c1ccccc1,IC50,[5],6.8 nM
